Results reported in patent US20160024175A1, “CHEMOTHERAPY-RESISTANT IMMUNE CELLS” (priority 2013, published 2016).
Where two headings read alike, the source gives them in different places.

How the values were obtained:
U373.eGFP.FFLuc cells = test: Coculture of U373.eGFP.FFLuc tumor cells with T cells with or without TMZ, tumor killing by fluorescence microscopy; type: cell-based; conditions: TMZ with non-transduced (NT) T cells
Experimental: Tumor killing was evaluated by fluorescence microscopy.
Both TMZ and HER2.CAR T cells have anti-GBM activity on their own; however, it is unknown whether combining the agents provides additional benefit.

[1] = tested on: glioblastoma multiforme (GBM); conditions: cited from earlier work; for median overall survival: GBM patients receiving TMZ
HER2.CAR T cells = test: Expansion of HER2.CAR T cells with IL-2 under repeated TMZ treatment (cell counts every three days); type: cell-based; conditions: 100 μM TMZ, retreated every three days, 100 U/ml IL-2; n=4 donors; p<0.05
Experimental: 1×10^6 HER2.CAR T cells were plated on day 1 with 100 U/ml of IL-2 and treated with 100 μM TMZ. Every three days, the T cells were counted, given fresh IL-2, and retreated with TMZ.
To do this, 1×10^6 HER2.CAR T cells were plated with 100 U/ml of IL-2 and treated with 100 μM TMZ (day 1). Every three days, the T cells were counted, given fresh IL-2, and re-treated with TMZ.

For `Cn1nnc2c(C(N)=O)ncn2c1=O` [TMZ, 3-methyl-4-oxo-3H,4H-imidazo[4,3-d][1,2,3,5]tetrazine-8-carboxamide], the “antitumor activity / tumor killing” value (U373.eGFP.FFLuc cells) is listed as “limited antitumor activity”, the median overall survival ([1]; methylated MGMT promoters) is listed as 21.7 months and the median overall survival ([1]; unmethylated MGMT promoters) is listed as 12.7 months. For the same compound, the overall survival ([1]; phase III trial, TMZ with radiation therapy vs. radiotherapy alone, GBM patients) was “significantly improve the overall survival” and the “effect of TMZ on T-cell expansion” value (HER2.CAR T cells) was “effectively prevented T-cell expansion”.
